Results as given in paper PMC4494771, “Synthesis, structure, and biological activity of novel heterocyclic sulfonyl-carboximidamides” (Monatshefte Fur Chemie, 2013).
Converted amounts (≈) assume the structure as drawn.

Columns and labels:
SK-MEL-2 = assay: NCI-60 DTP human tumor cell line screening; assay type: cell-based; settings: Melanoma SK-MEL-2
HS 578T = assay: NCI-60 DTP human tumor cell line screening; assay type: cell-based; settings: Breast cancer HS 578T
[1] = tested on: panel of 60 human tumor cell lines; assay: NCI-60 DTP human tumor cell line screening, whole panel
KM12 = assay: NCI-60 DTP human tumor cell line screening; assay type: cell-based
PC-3 = assay: NCI-60 DTP human tumor cell line screening; assay type: cell-based; settings: Prostate cancer PC-3
SNB-19 = assay: NCI-60 DTP human tumor cell line screening; assay type: cell-based; settings: CNS cancer SNB-19
MDA-MB-435 = assay: NCI-60 DTP human tumor cell line screening; assay type: cell-based
SW-620 = assay: NCI-60 DTP human tumor cell line screening; assay type: cell-based
NCI-H23 = assay: NCI-60 DTP human tumor cell line screening; assay type: cell-based; settings: Non-small cell lung cancer NCI-H23
HOP-62 = assay: NCI-60 DTP human tumor cell line screening; assay type: cell-based; settings: Non-small cell lung cancer HOP-62
LOX IMVI = assay: NCI-60 DTP human tumor cell line screening; assay type: cell-based; settings: Melanoma LOX IMVI
SF-539 = assay: NCI-60 DTP human tumor cell line screening; assay type: cell-based; settings: CNS cancer SF-539
U251 = assay: NCI-60 DTP human tumor cell line screening; assay type: cell-based; settings: CNS cancer U251
[2] = tested on: neonatal human dermal fibroblasts (ATCC PCS-201-010); assay: Cytotoxic activity, fibroblast proliferation (sulforhodamine B); assay type: cell-based
Description: Passage for normal neonatal human dermal fibroblasts (ATCC PCS-201-010, lot 58243223) were grown in DMEM with 5 % calf serum (Hyclone). For the experiment, cells were plated in DMEM/5 % serum at 2,000 cells/well in 96 well plates (plate 598) and were exposed to test materials for 96 h. MAP and bFGF were used as the positive controls and water, 1, 0.5, and 0.25 % DMSO were used as the negative controls. Plate growth was stopped and cells were stained with a sulforhodamine B dye. The dye was then dissolved and a colorimetric signal proportional to total cell/protein count was quantified with the BioRad microplate spectrophotometer 3550-UV at 570 nm with background subtraction at 660 nm and analyzed with Microplate Manager v.2 software for Macintosh (BioRad). Error bars represent standard errors of the mean (SEM). P values representing statistical significance were calculated using the t test.

T-47D = assay: NCI-60 DTP human tumor cell line screening; assay type: cell-based; settings: Breast cancer T-47D
SK-OV-3 = assay: NCI-60 DTP human tumor cell line screening; assay type: cell-based; settings: Ovarian cancer SK-OV-3
NCI-H226 = assay: NCI-60 DTP human tumor cell line screening; assay type: cell-based; settings: Non-small cell lung cancer NCI-H226
CCRF-CEM = assay: NCI-60 DTP human tumor cell line screening; assay type: cell-based; settings: Leukemia CCRF-CEM
SNB-75 = assay: NCI-60 DTP human tumor cell line screening; assay type: cell-based; settings: CNS cancer SNB-75
P. acnes ATCC 11827 = assay: Antibacterial activity, MIC in broth serial dilution
Description: Compounds were tested at serial dilutions in bacterial broth starting at 100 μg/cm^3 (final concentration). P. acnes (ATCC 11827, lot 419697) was grown in thioglycollate nutrient broth (Hardy Diagnostics K29) for 72 h at 33 °C, then inoculated at the density equivalent to 0.5 McFarland standard and incubated with the test materials for another 72 h in an anaerobic environment. […] At the end of the incubation the MIC was assessed optically as the lowest concentration of a test material which caused no bacteria growth [34]. This optical assessment was further confirmed by measuring the absorbance at 655 nm with the BioRad 3550-UV microplate reader. The MIC was defined as at least 50 % inhibition of the increase of OD.

UACC-257 = assay: NCI-60 DTP human tumor cell line screening; assay type: cell-based; settings: Melanoma UACC-257
UACC-62 = assay: NCI-60 DTP human tumor cell line screening; assay type: cell-based; settings: Melanoma UACC-62
OVCAR-4 = assay: NCI-60 DTP human tumor cell line screening; assay type: cell-based; settings: Ovarian cancer OVCAR-4
OVCAR-3 = assay: NCI-60 DTP human tumor cell line screening; assay type: cell-based; settings: Ovarian cancer OVCAR-3
CAKI-1 = assay: NCI-60 DTP human tumor cell line screening; assay type: cell-based; settings: Renal cancer CAKI-1
NCI-H322M = assay: NCI-60 DTP human tumor cell line screening; assay type: cell-based; settings: Non-small cell lung cancer NCI-H322M
ACHN = assay: NCI-60 DTP human tumor cell line screening; assay type: cell-based; settings: Renal cancer ACHN
MDA-MB-231/ATCC = assay: NCI-60 DTP human tumor cell line screening; assay type: cell-based; settings: Breast cancer MDA-MB-231/ATCC
OVCAR-8 = assay: NCI-60 DTP human tumor cell line screening; assay type: cell-based; settings: Ovarian cancer OVCAR-8
SK-MEL-28 = assay: NCI-60 DTP human tumor cell line screening; assay type: cell-based; settings: Melanoma SK-MEL-28
NCI-H460 = assay: NCI-60 DTP human tumor cell line screening; assay type: cell-based

## NC(=NS(=O)(=O)c1ccccc1Cl)c1ccc2ccccc2n1 [Compound 15, N′-(2-Chlorophenylsulfonyl)quinoline-2-carboximidamide]
SK-MEL-2; Homo sapiens
  GI50: 3.4 µM
SK-MEL-2
  TGI: ^c (Determined TGI values were >100 μM)
HS 578T
  TGI: ^c (Determined TGI values were >100 μM)
HS 578T; Homo sapiens
  GI50: 8.98 µM
[1]; 10 μM, mean of growth percent for all tested cell lines
  Growth percent mean values (MG_MID): 53.4%
[1]; Homo sapiens
  GI50: 0.92 to 13 µM
[1]; Homo sapiens, SK-MEL-5, read-out: LC 50
  CC50: > 100 µM
KM12; Colon cancer KM12
  TGI: ^c (Determined TGI values were >100 μM)
KM12; Homo sapiens, KM12, read-out: Growth inhibition ΔGI
  inhibition at 10 µM: 23%
KM12; Homo sapiens, Colon cancer KM12
  GI50: 3.29 µM
PC-3; Homo sapiens
  GI50: 9.59 µM
PC-3
  TGI: ^c (Determined TGI values were >100 μM)
SNB-19
  TGI: ^c (Determined TGI values were >100 μM)
SNB-19; Homo sapiens
  GI50: 5.61 µM
MDA-MB-435; Homo sapiens, MDA-MB-435, read-out: Growth inhibition ΔGI
  inhibition at 10 µM: 80.4%
MDA-MB-435; Homo sapiens, Melanoma MDA-MB-435
  GI50: 1.13 µM
MDA-MB-435; Melanoma MDA-MB-435
  TGI: 3.78 µM
SW-620; Colon cancer SW-620
  TGI: ^c (Determined TGI values were >100 μM)
SW-620; Homo sapiens, SW-620, read-out: Growth inhibition ΔGI
  inhibition at 10 µM: 24.7%
SW-620; Homo sapiens, Colon cancer SW-620
  GI50: 3.45 µM
NCI-H23; Homo sapiens
  GI50: 5.44 µM
NCI-H23
  TGI: ^c (Determined TGI values were >100 μM)
HOP-62; Homo sapiens
  GI50: 5.37 µM
HOP-62
  TGI: ^c (Determined TGI values were >100 μM)
LOX IMVI; Homo sapiens
  GI50: 4.05 µM
LOX IMVI
  TGI: ^c (Determined TGI values were >100 μM)
SF-539
  TGI: ^c (Determined TGI values were >100 μM)
SF-539; Homo sapiens
  GI50: 4.19 µM
U251
  TGI: ^c (Determined TGI values were >100 μM)
U251; Homo sapiens, U-251
  GI50: 4.48 µM
[2]; 6.25 μg/cm^3
  growth inhibitory activity: 70%
[2]; 96 h, 6.25–100 μg/cm^3
  cytotoxic activity on fibroblast proliferation: strongly cytotoxic
T-47D
  TGI: ^c (Determined TGI values were >100 μM)
T-47D; Homo sapiens, T47D
  GI50: 7.04 µM
SK-OV-3; Homo sapiens
  GI50: 3.93 µM
SK-OV-3
  TGI: ^c (Determined TGI values were >100 μM)
NCI-H226; Homo sapiens
  GI50: 10.8 µM
NCI-H226
  TGI: ^c (Determined TGI values were >100 μM)
CCRF-CEM; Homo sapiens
  GI50: 3.65 µM
CCRF-CEM
  TGI: ^c (Determined TGI values were >100 μM)
SNB-75
  TGI: 30.60 µM
SNB-75; Homo sapiens
  GI50: 2.52 µM
P. acnes ATCC 11827; Cutibacterium acnes, ATCC11827, 72 h, read-out: MIC P. acnes, P. acnes ATCC 11827, 72 h anaerobic
  MIC: 12.5 to 50 µg/mL (≈ 36.1 to 145 µM)
P. acnes ATCC 11827; P. acnes ATCC 11827, 72 h anaerobic
  MIC P. acnes: 12.5 µg/mL (≈ 36.1 µM)
UACC-257; Homo sapiens
  GI50: 11.7 µM
UACC-257
  TGI: ^c (Determined TGI values were >100 μM)
UACC-62; Homo sapiens
  GI50: 6.07 µM
UACC-62
  TGI: ^c (Determined TGI values were >100 μM)
OVCAR-4; Homo sapiens
  GI50: 9.15 µM
OVCAR-4
  TGI: 9.53 µM
OVCAR-3
  GI50: 9.27 µM
CAKI-1; Homo sapiens
  GI50: 5.21 µM
CAKI-1
  TGI: ^c (Determined TGI values were >100 μM)
NCI-H322M; Homo sapiens
  GI50: 5.19 µM
NCI-H322M
  TGI: ^c (Determined TGI values were >100 μM)
ACHN; Homo sapiens
  GI50: 7.19 µM
ACHN
  TGI: 13.10 µM
MDA-MB-231/ATCC
  TGI: ^c (Determined TGI values were >100 μM)
MDA-MB-231/ATCC; Homo sapiens
  GI50: 13 µM
OVCAR-8; Homo sapiens
  GI50: 5.74 µM
OVCAR-8
  TGI: 12.00 µM
SK-MEL-28; Homo sapiens
  GI50: 5.45 µM
SK-MEL-28
  TGI: 12.00 µM
NCI-H460; Homo sapiens, NCI-H460, read-out: Growth inhibition ΔGI
  inhibition at 10 µM: 19.6%
NCI-H460; Homo sapiens, Non-small cell lung cancer NCI-H460
  GI50: 4.02 µM
NCI-H460; Non-small cell lung cancer NCI-H460
  TGI: ^c (Determined TGI values were >100 μM)
